This is an account of results in US9440957B2, “Compounds and compositions for modulating EGFR Activity” (Novartis AG, priority 2012, dated 2016).

Read-outs that look alike come from different tables or passages of the source.

In one assay the target is T1, EGFR(L858R/T790M) (Homo sapiens, UniProt P00533, L858R/T790M).
T1 construct: purchased from Carna (GST-a.a. 669-1210)
Nature of the assay: EGFR biochemical assay (HTRF), IC50 determinations. As to the method:
All EGFR biochemical assays were carried out by HTRF method. […] The substrate peptide Biotin-TK-peptide was purchased from Cis-Bio. […] All reactions were carried out at room temperature in white ProxiPlate™ 384-well Plus plates (PerkinElmer) and were quenched with 5 μL of 0.2 M EDTA at 60 min. Five L of the detection reagents (2.5 ng PT66K and 0.05 μg SAXL per well) were added, the plates were incubated at room temperature for 1 h and then read in EnVision reader. […] For no-preincubation condition, the compounds were added to the assay solution containing ATP and peptide, and the reaction was initiated by addition of enzyme. For pre-incubation conditions, the compounds were added to the assay solution containing enzyme and peptide, and pre-incubated at room temperature for desired period of time, then the reaction was initiated by addition of ATP.
For orientation: In TR-FRET formats the signal depends on donor and acceptor labels being close together.

The target of assay [1] is human EGFR WT (NIH/3T3 cells, EGF-induced) (Homo sapiens, UniProt P00533). Nature of the assay: EGFR target modulation in engineered NIH/3T3 cell lines (phospho-EGFR Y1068 AlphaLISA), EGFR WT. As to conditions: engineered NIH/3T3 cells, read-out: NIH3T3 IC50 (μM) EGFR (WT). It counts as cell-based. How it is done:
(§1) EGFR Target Modulation in Engineered NIH/3T3 Cell Lines Tissue Culture.
(§2) The cells were harvested with 0.05% Trypsin/EDTA (Hyclone #SH30236.01), re-suspended in 5% FBS/DMEM Pen/Strep without Puromycin and plated at 9,000 cells per well in 50 μl of media in a 384-well black plate with clear bottoms (Greiner #789068G). The cells were allowed to incubate overnight in a 37° C., 5% CO2 humidified tissue culture incubator. A 12-point test compound curve was prepared by serial diluting a 10 μM stock 1:3 in DMSO in a 384-well compound plate (Greiner #789201L). The serial diluted compounds were transferred to the plate containing cells by using a 50 nl Pin Head device (Perkin Elmer) and the cells were placed back in the incubator for 3 hours. Only the EGFR WT-expressing cells were induced with 50 ng/ml EGF (Preprotech #AF-100-15) for 5 minutes before lysis. […] The plates were shaken at 4° C. for 5 minutes with foil top at maximum speed. […] The plates were sealed with a foil top and frozen at −80° C. and thawed when needed.
(§3) The frozen aliquots were thawed and briefly centrifuged. All antibodies and beads were diluted in 1× AlphaLISA HiBlock Buffer (PE #AL004C). […] Goat anti-total EGFR (R&D Systems #AF231) was added and allowed to equilibrate for 1 hour at room temperature at 1 nM final concentration.
(§4) With these parameters, the IC50's for each compound in each cell line was calculated using non-linear curve fitting analysis.
On the technique in general: Alpha assays give light when donor and acceptor beads are brought close together.

The target of assay [2] is human EGFR L858R (NIH/3T3 cells) (Homo sapiens, UniProt P00533, L858R). Nature of the assay: EGFR target modulation in engineered NIH/3T3 cell lines (phospho-EGFR Y1068 AlphaLISA), EGFR L858R. The settings on record: engineered NIH/3T3 cells, read-out: NIH3T3 IC50 (μM) EGFR (L858R). It counts as cell-based. As to the method: as §1, §2, §3, §4
Assay [3] has as its target human EGFR L858R/T790M (NIH/3T3 cells) (Homo sapiens, UniProt P00533, L858R/T790M). Description: EGFR target modulation in engineered NIH/3T3 cell lines (phospho-EGFR Y1068 AlphaLISA), EGFR L858R/T790M. It counts as cell-based. The settings on record: engineered NIH/3T3 cells, read-out: NIH3T3 IC50 (μM) EGFR (L858R/T790M). How it is done:
as §1, §2, §3, §4

Where [4] appears, read: EGFR (L858R/T790M) with 90 min pre-incubation, read-out: IC50 (μM) Column B.
Setting [5] is: EGFR (L858R/T790M) with no pre-incubation, read-out: IC50 (μM) Column A.

Sequence of human EGFR L858R/T790M (NIH/3T3 cells) (P00533 25-1210 T790M/L858R): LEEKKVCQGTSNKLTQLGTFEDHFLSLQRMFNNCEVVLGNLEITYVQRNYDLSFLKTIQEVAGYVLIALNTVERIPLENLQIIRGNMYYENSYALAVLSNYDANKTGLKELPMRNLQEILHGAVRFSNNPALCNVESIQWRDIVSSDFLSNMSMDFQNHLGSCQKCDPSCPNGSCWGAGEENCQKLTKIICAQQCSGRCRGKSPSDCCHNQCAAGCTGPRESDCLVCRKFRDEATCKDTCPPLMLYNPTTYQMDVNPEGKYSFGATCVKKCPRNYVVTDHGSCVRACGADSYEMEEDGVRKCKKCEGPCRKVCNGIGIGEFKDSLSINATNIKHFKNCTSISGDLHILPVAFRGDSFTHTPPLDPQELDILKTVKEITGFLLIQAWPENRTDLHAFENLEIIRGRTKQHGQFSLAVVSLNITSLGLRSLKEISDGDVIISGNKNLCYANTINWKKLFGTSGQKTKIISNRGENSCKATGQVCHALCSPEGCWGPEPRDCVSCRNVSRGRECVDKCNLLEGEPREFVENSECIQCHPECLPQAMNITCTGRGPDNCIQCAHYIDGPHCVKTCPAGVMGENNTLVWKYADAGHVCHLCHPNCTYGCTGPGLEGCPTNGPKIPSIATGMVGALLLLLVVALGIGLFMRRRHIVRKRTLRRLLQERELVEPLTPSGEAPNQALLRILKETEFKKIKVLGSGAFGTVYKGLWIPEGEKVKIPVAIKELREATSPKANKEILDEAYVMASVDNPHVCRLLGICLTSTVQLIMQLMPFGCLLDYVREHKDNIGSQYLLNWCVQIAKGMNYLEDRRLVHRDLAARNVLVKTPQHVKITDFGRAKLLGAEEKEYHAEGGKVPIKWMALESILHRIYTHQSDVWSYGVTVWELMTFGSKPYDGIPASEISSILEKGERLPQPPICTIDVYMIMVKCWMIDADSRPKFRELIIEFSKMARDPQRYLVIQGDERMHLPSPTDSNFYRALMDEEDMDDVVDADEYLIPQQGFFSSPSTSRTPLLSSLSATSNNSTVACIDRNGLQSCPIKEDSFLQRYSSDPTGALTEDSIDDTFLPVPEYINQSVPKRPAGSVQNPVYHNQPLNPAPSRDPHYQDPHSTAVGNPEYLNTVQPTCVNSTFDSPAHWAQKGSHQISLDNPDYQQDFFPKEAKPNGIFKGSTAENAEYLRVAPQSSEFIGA
Sequence of human EGFR L858R (NIH/3T3 cells) (P00533 25-1210 L858R): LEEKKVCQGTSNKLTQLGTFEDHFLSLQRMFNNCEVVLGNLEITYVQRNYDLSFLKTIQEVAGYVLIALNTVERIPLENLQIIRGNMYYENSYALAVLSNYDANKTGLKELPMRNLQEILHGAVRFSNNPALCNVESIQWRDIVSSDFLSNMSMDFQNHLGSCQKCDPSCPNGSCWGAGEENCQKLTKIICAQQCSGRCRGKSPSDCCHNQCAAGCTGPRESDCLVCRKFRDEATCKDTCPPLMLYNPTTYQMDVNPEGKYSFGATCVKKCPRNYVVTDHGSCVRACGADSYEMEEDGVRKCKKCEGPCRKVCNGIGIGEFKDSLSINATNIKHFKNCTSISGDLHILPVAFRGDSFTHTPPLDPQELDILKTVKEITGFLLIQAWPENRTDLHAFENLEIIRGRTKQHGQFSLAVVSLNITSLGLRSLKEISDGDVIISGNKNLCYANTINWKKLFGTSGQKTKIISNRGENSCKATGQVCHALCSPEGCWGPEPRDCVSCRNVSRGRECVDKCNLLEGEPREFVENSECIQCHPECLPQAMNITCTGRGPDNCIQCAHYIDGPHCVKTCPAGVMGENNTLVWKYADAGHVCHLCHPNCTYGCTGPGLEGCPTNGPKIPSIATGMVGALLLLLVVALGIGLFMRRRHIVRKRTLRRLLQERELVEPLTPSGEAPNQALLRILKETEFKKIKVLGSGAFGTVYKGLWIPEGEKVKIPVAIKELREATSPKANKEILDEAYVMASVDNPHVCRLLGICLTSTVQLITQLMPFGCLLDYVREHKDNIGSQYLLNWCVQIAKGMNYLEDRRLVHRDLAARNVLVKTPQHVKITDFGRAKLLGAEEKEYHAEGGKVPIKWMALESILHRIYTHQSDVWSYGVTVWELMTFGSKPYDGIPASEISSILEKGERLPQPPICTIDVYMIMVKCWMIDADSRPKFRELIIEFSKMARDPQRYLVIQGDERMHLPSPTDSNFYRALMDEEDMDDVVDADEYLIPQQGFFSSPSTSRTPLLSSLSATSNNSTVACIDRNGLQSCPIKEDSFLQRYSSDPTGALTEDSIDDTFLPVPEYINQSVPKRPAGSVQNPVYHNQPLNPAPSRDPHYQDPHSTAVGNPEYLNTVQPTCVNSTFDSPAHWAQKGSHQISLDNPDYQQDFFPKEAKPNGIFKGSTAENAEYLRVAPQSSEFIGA
Sequence of human EGFR WT (NIH/3T3 cells, EGF-induced) (P00533 25-1210): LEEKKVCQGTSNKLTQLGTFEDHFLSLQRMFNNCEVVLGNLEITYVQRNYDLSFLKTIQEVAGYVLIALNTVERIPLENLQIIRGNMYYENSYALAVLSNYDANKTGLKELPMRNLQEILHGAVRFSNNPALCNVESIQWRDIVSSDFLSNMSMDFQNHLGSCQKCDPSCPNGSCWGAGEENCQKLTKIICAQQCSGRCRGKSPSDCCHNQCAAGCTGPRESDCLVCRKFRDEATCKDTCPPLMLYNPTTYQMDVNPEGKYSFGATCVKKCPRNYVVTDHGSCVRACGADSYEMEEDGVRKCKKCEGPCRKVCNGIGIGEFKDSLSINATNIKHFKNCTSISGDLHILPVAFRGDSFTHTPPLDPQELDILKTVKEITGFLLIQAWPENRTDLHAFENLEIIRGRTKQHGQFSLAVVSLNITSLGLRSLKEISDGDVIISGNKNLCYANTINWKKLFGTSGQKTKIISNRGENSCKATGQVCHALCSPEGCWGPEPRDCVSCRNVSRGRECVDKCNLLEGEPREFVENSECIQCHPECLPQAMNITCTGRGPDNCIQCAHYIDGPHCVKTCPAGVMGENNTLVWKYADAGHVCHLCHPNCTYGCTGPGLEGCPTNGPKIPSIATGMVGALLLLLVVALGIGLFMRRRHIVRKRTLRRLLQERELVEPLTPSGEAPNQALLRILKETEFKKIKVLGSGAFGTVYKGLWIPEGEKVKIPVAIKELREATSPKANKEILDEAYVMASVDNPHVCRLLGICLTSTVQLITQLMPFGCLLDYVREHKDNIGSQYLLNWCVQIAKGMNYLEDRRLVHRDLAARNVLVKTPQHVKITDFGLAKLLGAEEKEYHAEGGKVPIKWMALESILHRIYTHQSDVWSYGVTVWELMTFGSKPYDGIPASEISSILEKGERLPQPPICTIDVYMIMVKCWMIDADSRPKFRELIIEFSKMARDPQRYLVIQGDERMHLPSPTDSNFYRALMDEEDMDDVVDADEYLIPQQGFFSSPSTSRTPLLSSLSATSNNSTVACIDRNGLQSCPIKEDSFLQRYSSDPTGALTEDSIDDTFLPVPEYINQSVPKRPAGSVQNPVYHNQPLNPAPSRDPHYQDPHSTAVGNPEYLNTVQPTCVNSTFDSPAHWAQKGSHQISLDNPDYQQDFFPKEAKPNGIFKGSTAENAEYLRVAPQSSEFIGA
T1 sequence (P00533 669-1210 T790M/L858R): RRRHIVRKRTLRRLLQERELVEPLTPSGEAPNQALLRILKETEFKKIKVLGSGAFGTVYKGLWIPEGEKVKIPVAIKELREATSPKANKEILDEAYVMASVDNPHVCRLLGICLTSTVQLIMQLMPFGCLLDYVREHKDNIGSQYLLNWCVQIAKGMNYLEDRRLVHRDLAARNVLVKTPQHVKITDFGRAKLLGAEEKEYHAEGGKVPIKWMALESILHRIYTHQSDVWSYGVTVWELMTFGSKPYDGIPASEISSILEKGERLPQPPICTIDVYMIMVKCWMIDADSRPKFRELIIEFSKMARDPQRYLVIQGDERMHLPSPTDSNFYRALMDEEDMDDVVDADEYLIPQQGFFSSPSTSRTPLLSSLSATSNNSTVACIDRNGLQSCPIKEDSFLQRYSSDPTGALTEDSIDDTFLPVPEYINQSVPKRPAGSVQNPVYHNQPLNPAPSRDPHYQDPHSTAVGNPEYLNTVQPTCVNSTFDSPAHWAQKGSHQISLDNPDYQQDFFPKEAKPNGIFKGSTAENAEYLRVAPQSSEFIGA

As to `C=CC(=O)N1CCC[C@@H](n2c(NC(=O)c3cccc(C(F)(F)F)c3)nc3cc(CN4CCC(F)(F)C4)ccc32)C1` [Example 17-125], the IC50 is 0.003 µM on EGFR(L858R/T790M) (setting [4]); 0.068 µM at EGFR(L858R/T790M) (setting [5]); over 7.6 µM in assay [1]; 0.087 µM in assay [2]; 0.013 µM in assay [3].

With `C=CC(=O)N1CCCC[C@@H](n2c(NC(=O)c3ccnc(C)c3)nc3cc(CN4CC[C@H](O)C4)cc(C)c32)C1` [Example 17-146], the IC50 was under 0.001 µM at EGFR(L858R/T790M) (setting [4]); 0.002 µM at EGFR(L858R/T790M) (setting [5]); 0.137 µM in assay [1]; 0.003 µM in assay [2]; 0.004 µM in assay [3].

Regarding `C=CC(=O)N1CCCC(n2c(NC(=O)c3cccc(C(F)(F)F)c3)nc3c2CN(C(=O)OC)CC3)C1` (centres unmarked) [Example 17-170], the IC50 at EGFR(L858R/T790M) (setting [4]) is 0.006 µM; on EGFR(L858R/T790M) (setting [5]), 0.66 µM; in assay [1], over 10 µM; in assay [2], 0.39 µM; in assay [3], 0.01 µM.

Take `C=CC(=O)N1CCCC(n2c(NC(=O)c3cccc(C(F)(F)F)c3)nc3ccncc32)C1` (centres unmarked) [Example 17-9]: the IC50 at EGFR(L858R/T790M) (setting [4]) was 0.218 µM; on EGFR(L858R/T790M) (setting [5]) it was 4.1 µM; in assay [1], over 10 µM; in assay [2], 8.6 µM; in assay [3], 0.194 µM.

`C=CC(=O)N1CCC(n2c(NC(=O)c3cccc(C(F)(F)F)c3)nc3cc(C)ccc32)C1` (centres unmarked) [Example 17-98]: the IC50 is 0.058 µM at EGFR(L858R/T790M) (setting [4]) and 0.84 µM on EGFR(L858R/T790M) (setting [5]).

Take `C=CC(=O)N1CCC[C@@H](n2c(NC(=O)c3cccc(C(F)(F)F)c3)nc3cc(C)ccc32)C1` [17-105, 21-6]: the IC50 at EGFR(L858R/T790M) (setting [4]) worked out at 0.002 µM; on EGFR(L858R/T790M) (setting [5]), 0.1 µM.

`Cc1cccc2nc(NC(=O)c3ccnc(C(F)(F)F)c3)n([C@@H]3CCCCN(C(=O)/C=C/CN(C)C)C3)c12` [8, 21-2]: the IC50 at EGFR(L858R/T790M) (setting [4]) and on EGFR(L858R/T790M) (setting [5]) was under 0.001 µM in each case.

Regarding `C=CC(=O)N1CCCC(n2c(NC(=O)c3cccc(C(F)(F)F)c3)nc3cc(C)ccc32)CC1` (centres unmarked) [Example 17-107], the values for the IC50 on EGFR(L858R/T790M) (setting [4]) and at EGFR(L858R/T790M) (setting [5]) were 0.38 µM and 0.32 µM, respectively.

On to `C=CC(=O)N1CCC[C@H](n2c(NC(=O)c3cccc(C(F)(F)F)c3)nc3cc(C)ccc32)C1` [4, 21-5], for which the IC50 came out at 0.071 µM on EGFR(L858R/T790M) (setting [4]) and 0.41 µM on EGFR(L858R/T790M) (setting [5]).

For `Cc1ncccc1C(=O)Nc1nc2cccc(C)c2n1C1CCCCN(C(=O)/C=C/CN(C)C)C1` (centres unmarked) [Example 17-62], the IC50 on EGFR(L858R/T790M) (setting [4]) amounted to 0.006 µM; at EGFR(L858R/T790M) (setting [5]) it was 0.14 µM; in assay [1] it was 2.5 µM; in assay [2], 0.234 µM.

On to `C=CC(=O)N1CCC(n2c(NC(=O)c3cccc(C(F)(F)F)c3)nc3cc(C)ccc32)CC1` [Example 17-97], for which the IC50 on EGFR(L858R/T790M) (setting [4]) was determined as 0.4 µM; at EGFR(L858R/T790M) (setting [5]), 0.204 µM.

For the molecule `Cc1cccc2nc(NC(=O)c3ccn4cncc4c3)n(C3CCCCN(C(=O)/C=C/CN(C)C)C3)c12` (centres unmarked) [Example 17-63], the IC50 is under 0.001 µM on EGFR(L858R/T790M) (setting [4]), 0.003 µM on EGFR(L858R/T790M) (setting [5]), 0.038 µM in assay [1] and 0.003 µM in assay [2].

Regarding `C/C=C/C(=O)N1CC(n2c(NC(=O)c3cccc(C(F)(F)F)c3)nc3cc(C)ccc32)C1` [Example 17-101], the IC50 at EGFR(L858R/T790M) (setting [4]) is 0.193 µM; on EGFR(L858R/T790M) (setting [5]) it was 0.99 µM.

Take `Cc1cccc2nc(NC(=O)c3ccnc(-n4cnnn4)c3)n(C3CCCCN(C(=O)/C=C/CN(C)C)C3)c12` (centres unmarked) [Example 17-60]: the figures for the IC50 in assay [1], in assay [2] and in assay [3] were 0.012 µM, 0.002 µM and 0.002 µM, respectively.

As to `C=CC(=O)N1CC(n2c(NC(=O)c3cccc(C(F)(F)F)c3)nc3cc(C)ccc32)C1` [Example 17-99], the IC50 on EGFR(L858R/T790M) (setting [4]) is 0.097 µM; at EGFR(L858R/T790M) (setting [5]), 1.22 µM.

As to `Cc1cccc2nc(NC(=O)c3cn4ccsc4n3)n(C3CCCCN(C(=O)/C=C/CN(C)C)C3)c12` (centres unmarked) [Example 17-51], the IC50 at EGFR(L858R/T790M) (setting [4]) was found to be 0.048 µM; at EGFR(L858R/T790M) (setting [5]) it was 1.95 µM; in assay [2], 0.47 µM; in assay [3], 0.65 µM.

On to `C=CC(=O)N1CCCC(n2c(NC(=O)c3cccc(C(F)(F)F)c3)nc3cc(C)ccc32)C1` (centres unmarked) [Example 17-100], for which the IC50 amounted to 0.34 µM in assay [2] and 0.026 µM in assay [3].
